Patent EP4818158A1, “BIARYL COMPOUND” (Kissei Pharmaceutical Co., Ltd., priority 2023, dated 2025)

Target: T1, human TSHR (Homo sapiens, UniProt P16473)
T1 construct: expressed in transfected cells
Assay: Antagonist activity using TSH-induced cAMP generation in human TSHR-stably expressing CHO cells
Assay type: cell-based
Conditions: human TSH 50 ng/mL
Procedure: Measurement of antagonist activity using TSH-induced cAMP generation in human TSHR-stably expressing CHO cells as an indicator
The gene sequence (reference number: NM_000369.2) of a human TSHR was inserted into multiple cloning sites of pcDNA3.1 (+). Prepared plasmid vectors were introduced into CHO cells using a lipofection method, and human TSHR-stably expressing CHO cells were established. Obtained cells were seeded in a 96-well poly-D-lysine-coated plate at 5 × 10^4 cells/well and cultured in an F12 culture medium containing 10%FBS, 400 µg/mL of G418, 50 U/mL of penicillin, and 50 µg/mL of streptomycin under conditions of 37°C and 5% CO2 for one day. After the culture medium was removed, the cells were washed twice with 100 µL of an assay buffer solution (Hanks' Balanced Salt Solution containing 20 mM HEPES and 1 mM IBMX) per well. 30 µL of a test compound-containing assay buffer solution was added to the well and incubated at room temperature for 15 minutes. Next, 30 µL of an assay buffer solution containing human TSH (final concentration: 50 ng/mL, R&D Systems, Inc.) was added thereto and incubated at 37°C for one hour. A supernatant was removed, a Lysis and Detection Buffer 2(Cisbio) was added thereto, and the mixture was incubated at room temperature for one hour to prepare a cell lysate. According to the instruction manual of a cAMP Gs HiRange kit (Cisbio), the cell lysate, d2-labeled cAMP, and anti-cAMP Europium Cryptate labeled antibodies (Cisbio) were reacted together in a 384-well white microplate. Next, fluorescence intensity ratios (measurement wavelengths: 665 nm/620 nm) were measured using a multi-plate reader (PHERAstar FSX, BMG LABTECH, Japan). The fluorescence intensity ratio of each sample was converted to a cAMP content using a standard curve. The cAMP content was converted as a percentage of the control value to calculate a cAMP generation rate. The cAMP generation rates were plotted against the test compound concentrations using Prism (Graph Pad Software Inc.) to calculate IC50 values. The IC50's of the individual test compounds are shown in the above tables. In the tables, IC50 < 0.3 µM was denoted as A, and 0.3 µM ≤ IC50 < 30 µM was denoted as B. Cases where the IC50 values were not calculated for test compounds from which activity was recognized are denoted as C.

T1 sequence (P16473 21-764): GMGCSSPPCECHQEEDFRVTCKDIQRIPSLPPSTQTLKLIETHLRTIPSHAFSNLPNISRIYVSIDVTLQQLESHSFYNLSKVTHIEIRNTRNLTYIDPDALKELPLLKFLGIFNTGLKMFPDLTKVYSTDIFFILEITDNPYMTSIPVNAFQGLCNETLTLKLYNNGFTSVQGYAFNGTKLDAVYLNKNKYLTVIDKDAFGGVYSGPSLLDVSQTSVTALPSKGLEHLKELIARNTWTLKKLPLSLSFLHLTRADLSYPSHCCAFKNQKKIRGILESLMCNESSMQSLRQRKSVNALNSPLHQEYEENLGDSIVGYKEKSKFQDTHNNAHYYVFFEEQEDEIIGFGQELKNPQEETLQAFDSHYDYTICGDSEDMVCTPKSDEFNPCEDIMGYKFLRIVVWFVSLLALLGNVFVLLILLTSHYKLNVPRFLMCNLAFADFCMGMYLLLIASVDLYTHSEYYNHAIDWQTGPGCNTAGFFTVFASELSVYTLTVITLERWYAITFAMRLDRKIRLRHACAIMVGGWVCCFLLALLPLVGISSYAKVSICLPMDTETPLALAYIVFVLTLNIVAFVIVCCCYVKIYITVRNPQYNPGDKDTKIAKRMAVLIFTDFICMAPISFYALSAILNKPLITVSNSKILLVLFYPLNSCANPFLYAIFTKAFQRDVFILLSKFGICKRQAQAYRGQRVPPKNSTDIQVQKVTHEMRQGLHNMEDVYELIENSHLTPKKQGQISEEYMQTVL

**Q.** `NC(=O)CCc1nnccc1-c1ccc(NC(=O)O[C@H]2C[C@H](F)C2)c(F)c1Cc1ccccc1F` [Example C-7, trans-3-Fluorocyclobutyl (4-(3-(3-amino-3-oxopropyl)pyridazin-4-yl)-2-fluoro-3-(2-fluorobenzyl)phenyl)carbamate] was tested. Which IC50 did it give?
**A.** 300 to 30000 nM

**Q.** With `NC(=O)CCc1nnccc1-c1ccc(NC(=O)OC2CC(F)(F)C2)c(F)c1Cc1ccccc1F` [Example C-8] as the compound, how does the IC50 read?
**A.** < 300 nM

**Q.** How did the IC50 turn out when `Cc1nnccc1-c1ccc(NC(=O)OC(C)(C)C)c(F)c1Cc1ccccc1F` [Example C-9, tert-Butyl (2-fluoro-3-(2-fluorobenzyl)-4-(3-methylpyridazin-4-yl)phenyl)carbamate] was run?
**A.** 300 to 30000 nM

**Q.** Which IC50 does the source give for `NC(=O)NCc1nnccc1-c1ccc(NC(=O)OC2(C3CC3)CC2)c(F)c1Cc1ccccc1F` [Example C-10] here?
**A.** 300 to 30000 nM

**Q.** For `CC(C)(C)OC(=O)Nc1ccc(-c2ccnnc2CNC(N)=O)c(Oc2ccccc2F)c1F` [Example D-1, tert-Butyl (2-fluoro-3-(2-fluorophenoxy)-4-(3-(ureidomethyl)pyridazin-4-yl)phenyl)carbamate], which IC50 is on record?
**A.** 300 to 30000 nM

**Q.** How did the IC50 turn out when `C[C@H](OC(=O)Nc1ccc(-c2ccnnc2CNC(N)=O)c(Oc2ccccc2F)c1F)C(F)(F)F` [Example D-2, (S)-1,1,1-Trifluoropropan-2-yl (2-fluoro-3-(2-fluorophenoxy)-4-(3-(ureidomethyl)pyridazin-4-yl)phenyl)carbamate] was run?
**A.** 300 to 30000 nM

**Q.** Which IC50 does the source give for `CC(C)(C)OC(=O)Nc1ccc(-c2ccnnc2CCC(N)=O)c(Oc2ccccc2F)c1F` [Example D-3, tert-Butyl (4-(3-(3-amino-3-oxopropyl)pyridazin-4-yl)-2-fluoro-3-(2-fluorophenoxy)phenyl)carbamate] here?
**A.** < 300 nM

**Q.** `C[C@H](OC(=O)Nc1ccc(-c2ccnnc2CCC(N)=O)c(Oc2ccccc2F)c1F)C(F)(F)F` [Example D-4, (S)-1,1,1-Trifluoropropan-2-yl (4-(3-(3-amino-3-oxopropyl)pyridazin-4-yl)-2-fluoro-3-(2-fluorophenoxy)phenyl)carbamate] was tested. Which IC50 did it give?
**A.** < 300 nM

**Q.** Which IC50 does the source give for `Cc1ccccc1C(=O)c1c(-c2cccnc2CNC(N)=O)ccc(NC(=O)OC(C)(C)C)c1F` [Example E-1, tert-Butyl (2-fluoro-3-(2-methylbenzoyl)-4-(2-(ureidomethyl)pyridin-3-yl)phenyl)carbamate] here?
**A.** < 300 nM

**Q.** For `CC(C)(C)OC(=O)Nc1ccc(-c2cccnc2CNC(N)=O)c(C(=O)c2ccccc2C(F)(F)F)c1F` [Example E-2], which IC50 is on record?
**A.** 300 to 30000 nM

**Q.** `CC(C)(C)OC(=O)Nc1ccc(-c2cccnc2CCC(N)=O)c(C(=O)c2ccccc2F)c1F` [Example E-3, tert-Butyl (4-(2-(3-amino-3-oxopropyl)pyridin-3-yl)-2-fluoro-3-(2-fluorobenzoyl)phenyl)carbamate] was tested. Which IC50 did it give?
**A.** < 300 nM

**Q.** How did the IC50 turn out when `C[C@H](OC(=O)Nc1ccc(-c2cccnc2CCC(N)=O)c(C(=O)c2ccccc2F)c1F)C(F)(F)F` [Example E-4, (S)-1,1,1-Trifluoropropan-2-yl (4-(2-(3-amino-3-oxopropyl)pyridin-3-yl)-2-fluoro-3-(2-fluorobenzoyl)phenyl)carbamate] was run?
**A.** < 300 nM

**Q.** Which IC50 does the source give for `C[C@H](OC(=O)Nc1ccc(-c2cccnc2CCC(N)=O)c(C(=O)c2ccccc2F)c1F)C1CC1` [Example E-5, (S)-1-Cyclopropylethyl (4-(2-(3-amino-3-oxopropyl)pyridin-3-yl)-2-fluoro-3-(2-fluorobenzoyl)phenyl)carbamate] here?
**A.** < 300 nM

**Q.** For `NC(=O)CCc1ncccc1-c1ccc(NC(=O)OC2CC(F)(F)C2)c(F)c1C(=O)c1ccccc1F` [Example E-6], which IC50 is on record?
**A.** 300 to 30000 nM

**Q.** For `NC(=O)CCc1ncccc1-c1ccc(NC(=O)OCC2CC(F)(F)C2)c(F)c1C(=O)c1ccccc1F` [Example E-7], which IC50 is on record?
**A.** < 300 nM

**Q.** With `CC(C)(C)OC(=O)Nc1ccc(-c2cccnc2CCC(N)=O)c(C(=O)c2ccccc2C(F)(F)F)c1F` [Example E-8, tert-Butyl (4-(2-(3-amino-3-oxopropyl)pyridin-3-yl)-2-fluoro-3-(2-(trifluoromethyl)benzoyl)phenyl)carbamate] as the compound, how does the IC50 read?
**A.** < 300 nM

**Q.** Which IC50 does the source give for `NC(=O)CCc1ncccc1-c1ccc(NC(=O)OC2CC(F)(F)C2)c(F)c1C(=O)c1ccccc1C(F)(F)F` [Example E-9, 3,3-Difluorocyclobutyl (4-(2-(3-amino-3-oxopropyl)pyridin-3-yl)-2-fluoro-3-(2-(trifluoromethyl)benzoyl)phenyl)carbamate] here?
**A.** 300 to 30000 nM

**Q.** How did the IC50 turn out when `CC(C)(C)OC(=O)Nc1ccc(-c2cccnc2CNC(N)=O)c(Cc2ncccc2F)c1F` [Example F-1, tert-Butyl (2-fluoro-3-((3-fluoropyridin-2-yl)methyl)-4-(2-(ureidomethyl)pyridin-3-yl)phenyl)carbamate] was run?
**A.** 300 to 30000 nM

**Q.** `CC(C)(C)OC(=O)Nc1ccc(-c2cccnc2CCC(N)=O)c(Cc2ncccc2F)c1F` [Example F-2, tert-Butyl (4-(2-(3-amino-3-oxopropyl)pyridin-3-yl)-2-fluoro-3-((3-fluoropyridin-2-yl)methyl)phenyl)carbamate] was tested. Which IC50 did it give?
**A.** 300 to 30000 nM

**Q.** With `C[C@@H](OC(=O)Nc1ccc(-c2cccnc2CCC(N)=O)c(Cc2ncccc2F)c1F)C1CC1` [Example F-3, (R)-1-Cyclopropylethyl (4-(2-(3-amino-3-oxopropyl)pyridin-3-yl)-2-fluoro-3-((3-fluoropyridin-2-yl)methyl)phenyl)carbamate] as the compound, how does the IC50 read?
**A.** < 300 nM

**Q.** With `CC(C)(C)OC(=O)Nc1ccc(-c2cccnc2CNC(N)=O)c(CN2CCOCC2)c1F` [Example F-4, tert-Butyl (2-fluoro-3-(morpholinomethyl)-4-(2-(ureidomethyl)pyridin-3-yl)phenyl)carbamate] as the compound, how does the IC50 read?
**A.** 300 to 30000 nM

**Q.** How did the IC50 turn out when `C[C@H]1CN(Cc2c(-c3cccnc3CNC(N)=O)ccc(NC(=O)OC(C)(C)C)c2F)CCO1` [Example F-5, tert-Butyl (S)-(2-fluoro-3-((2-methylmorpholino)methyl)-4-(2-(ureidomethyl)pyridin-3-yl)phenyl)carbamate] was run?
**A.** > 30000 nM

**Q.** For `CC(C)(C)OC(=O)Nc1ccc(-c2cccnc2CNC(N)=O)c(CN2CCCC(F)(F)C2)c1F` [Example F-6, tert-Butyl (3-((3,3-difluoropiperidin-1-yl)methyl)-2-fluoro-4-(2-(ureidomethyl)pyridin-3-yl)phenyl)carbamate], which IC50 is on record?
**A.** 300 to 30000 nM

**Q.** `CC(C)(C)OC(=O)Nc1ccc(-c2cccnc2CNC(N)=O)c(CN2CC3CCC(C2)O3)c1F` [Example F-7, tert-Butyl (3-((8-oxa-3-azabicyclo[3.2.1]octan-3-yl)methyl)-2-fluoro-4-(2-(ureidomethyl)pyridin-3-yl)phenyl)carbamate] was tested. Which IC50 did it give?
**A.** 300 to 30000 nM

**Q.** With `CC(C)(C)OC(=O)Nc1ccc(-c2cccnc2CNC(N)=O)c(C(=O)N2CCOCC2)c1F` [Example F-8, tert-Butyl (2-fluoro-3-(morpholine-4-carbonyl)-4-(2-(ureidomethyl)pyridin-3-yl)phenyl)carbamate] as the compound, how does the IC50 read?
**A.** > 30000 nM

**Q.** Which IC50 does the source give for `CC(C)(C)OC(=O)Nc1ccc(-c2cccnc2CNC(N)=O)c(CC2CC2)c1F` [Example F-9, tert-Butyl (3-(cyclopropylmethyl)-2-fluoro-4-(2-(ureidomethyl)pyridin-3-yl)phenyl)carbamate] here?
**A.** 300 to 30000 nM

**Q.** With `CC1(C(=O)Nc2ccc(-c3cccnc3CNC(N)=O)c(Cc3ccccc3F)c2F)CC1` [Example G-1, N-(2-Fluoro-3-(2-fluorobenzyl)-4-(2-(ureidomethyl)pyridin-3-yl)phenyl)-1-methylcyclopropane-1-carboxamide] as the compound, how does the IC50 read?
**A.** 300 to 30000 nM

**Q.** How did the IC50 turn out when `CC(C)C(=O)Nc1ccc(-c2cccnc2CNC(N)=O)c(Cc2ccccc2F)c1F` [Example G-2, N-(2-Fluoro-3-(2-fluorobenzyl)-4-(2-(ureidomethyl)pyridin-3-yl)phenyl)isobutylamide] was run?
**A.** 300 to 30000 nM

**Q.** How did the IC50 turn out when `NC(=O)NCc1ncccc1-c1ccc(NC(=O)C2CC2)c(F)c1Cc1ccccc1F` [Example G-3, N-(2-Fluoro-3-(2-fluorobenzyl)-4-(2-(ureidomethyl)pyridin-3-yl)phenyl)cyclopropanecarboxamide] was run?
**A.** 300 to 30000 nM

**Q.** Which IC50 does the source give for `NC(=O)NCc1ncccc1-c1ccc(NC(=O)C2CC(F)(F)C2)c(F)c1Cc1ccccc1F` [Example G-4, 3,3-Difluoro-N-(2-fluoro-3-(2-fluorobenzyl)-4-(2-(ureidomethyl)pyridin-3-yl)phenyl)cyclobutane-1-carboxamide] here?
**A.** < 300 nM

**Q.** For `NC(=O)NCc1ncccc1-c1ccc(NC(=O)C2CCCO2)c(F)c1Cc1ccccc1F` (stereo not drawn) [Example G-5], which IC50 is on record?
**A.** 300 to 30000 nM

**Q.** With `NC(=O)NCc1ncccc1-c1ccc(NC(=O)N2CCCC2)c(F)c1Cc1ccccc1F` [Example G-6] as the compound, how does the IC50 read?
**A.** 300 to 30000 nM

**Q.** `NC(=O)NCc1ncccc1-c1ccc(NC(=O)N2CC3(CCC3)C2)c(F)c1Cc1ccccc1F` [Example G-7, N-(2-Fluoro-3-(2-fluorobenzyl)-4-(2-(ureidomethyl)pyridin-3-yl)phenyl)-2-azaspiro[3.3]heptane-2-carboxamide] was tested. Which IC50 did it give?
**A.** < 300 nM
